The results in this text go back to patent publication US20240199572A1, “COMPOUNDS, COMPOSITIONS, AND METHODS FOR TREATING TYPE 2 DIABETES AND DEMENTIA” (THE BOARD OF TRUSTEES OF THE UNIVERSITY OF ILLINOIS, priority 2021, published 2024).

The test system of one data set is SREBF1 mRNA. Briefly: SREBF1 mRNA - HepG2 (qRT-PCR). The format is cell-based, human. The source says:
qRT-PCR. For cell samples, treated cells were lysed with RLT plus lysis buffer (Qiagen). RNA was isolated with Qiagen RNEASY® Plus columns per manufacturer instructions, then reverse-transcribed to cDNA using […]® III Reverse Transcriptase (200 U/μL, Invitrogen) per supplier protocol. qPCR experiments were either performed with TAQMAN® gene expression master mix (Invitrogen) on a StepOne™ qPCR instrument or with […]® SYBR® Green SuperMix (Quanta Biosciences) on CFX Connect™ Real-Time PCR Detection System (BioRad), with fold-change quantified by ΔΔCt. For animal samples, 100 mg tissue was homogenized in 1 mL acid-guanidinium-phenol based reagent sold under the tradename TRIZOL® (Ambion), mixed vigorously in chloroform, and separated by centrifugation. Aqueous layer containing RNA was added to Qiagen RNEASY® Plus column; remaining stops were as described above for cell lysates.
Background: Quantitative PCR measures a nucleic acid by following its amplification.

In a further data set the target is T1, LXRα (Homo sapiens, UniProt Q13133).
T1 sequence (Q13133 1-447): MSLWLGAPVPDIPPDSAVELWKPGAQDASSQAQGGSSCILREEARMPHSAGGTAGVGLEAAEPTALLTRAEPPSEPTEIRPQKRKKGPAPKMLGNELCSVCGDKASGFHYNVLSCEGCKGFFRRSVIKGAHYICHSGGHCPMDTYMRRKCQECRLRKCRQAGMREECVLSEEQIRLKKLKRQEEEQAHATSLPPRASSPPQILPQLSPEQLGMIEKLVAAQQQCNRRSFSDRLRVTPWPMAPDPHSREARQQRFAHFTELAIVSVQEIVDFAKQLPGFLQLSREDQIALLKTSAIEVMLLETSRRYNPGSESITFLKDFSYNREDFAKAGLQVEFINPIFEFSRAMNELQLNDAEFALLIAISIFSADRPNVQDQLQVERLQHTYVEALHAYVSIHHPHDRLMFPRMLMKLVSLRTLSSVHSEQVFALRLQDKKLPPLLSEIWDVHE
Put plainly: LXRα NHR screen (DiscoverX NHR-Scan, β-gal reporter). The data set is classed as cell-based. As to the method:
(§1) Receptor Binding Assays. Nuclear hormone (NHR) assays were performed by DiscoverX (Fremont, CA) on their NHR-Scan platform of cell-based protein-protein interaction assays. This platform uses a […] reporter that activates upon interaction of full-length receptor protein with steroid coactivator receptor peptides. In agonist mode, activity of CL2-57 at 10 μM was compared to maximal activity of published positive control agonists; in antagonist mode, reduction in activity with 10 μM CL2-57 from that observed at […] of published agonists was quantified.

In a further data set the target is T2, PPARγ (Homo sapiens, UniProt P37231).
T2 construct: purchased Thermo Fisher Scientific
T2 sequence (P37231 232-505 limits assumed): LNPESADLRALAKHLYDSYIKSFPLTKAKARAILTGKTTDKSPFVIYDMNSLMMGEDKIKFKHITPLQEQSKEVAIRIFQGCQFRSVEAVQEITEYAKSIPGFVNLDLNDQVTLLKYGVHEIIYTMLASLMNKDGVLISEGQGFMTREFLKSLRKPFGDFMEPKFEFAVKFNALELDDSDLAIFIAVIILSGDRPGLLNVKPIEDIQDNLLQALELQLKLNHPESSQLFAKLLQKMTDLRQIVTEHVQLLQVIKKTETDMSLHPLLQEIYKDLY
Briefly: LanthaScreen TR-FRET coactivator assay PPARγ (antagonism of pioglitazone). The format is biochemical. As to the method:
TR-FRET Receptor Binding Assays. LanthaScreen” TR-FRET coactivator assay kits for LXRβ (Thermo Fisher Scientific) and PPARγ (Thermo Fisher Scientific) were performed according to manufacturer instructions using low-binding black 384-well plates and Synergy Neo2 plate reader. For the PPARγ assay, standardization was first performed with control agonist (pioglitazone), then run in two antagonist assays: dose-response of pioglitazone with or without a single concentration of CL2-57, and dose-response of CL2-57 cotreated with a single concentration (500 nM) of pioglitazone. Each compound dose was performed in quadruplicate on each plate, and each experiment was performed in triplicate.
(TR-FRET usually uses a lanthanide donor and a delayed reading to cut background.)

Another data set deals with CD1 mice. Briefly: CD1 mice, three daily p.o. treatments, LXR agonist adverse effects. The data set is classed as in vivo, mouse. The conditions noted are these: 10 mg/kg p.o., three days. The source says: Neutrophil Counts. […] After final dose, blood samples were run on an Advia 120 analyzer (Bayer) for neutrophil counts.
In data set [1] the target is T3, LXRβ (Homo sapiens, UniProt P55055).
T3 construct: purchased Thermo Fisher Scientific
T3 sequence (P55055 212-460 limits assumed): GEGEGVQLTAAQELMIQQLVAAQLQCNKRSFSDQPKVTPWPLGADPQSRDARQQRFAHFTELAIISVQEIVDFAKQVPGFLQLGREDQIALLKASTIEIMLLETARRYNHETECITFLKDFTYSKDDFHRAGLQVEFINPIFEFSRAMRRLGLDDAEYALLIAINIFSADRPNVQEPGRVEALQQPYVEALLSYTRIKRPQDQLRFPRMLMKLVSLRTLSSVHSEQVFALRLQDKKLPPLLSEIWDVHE
Briefly: LanthaScreen TR-FRET coactivator assay LXRβ. The data set is classed as biochemical. Particulars: read-out: EC50, LXRβ agonism, coactivator recruitment via TR-FRET.
Method: TR-FRET Receptor Binding Assays. LanthaScreen” TR-FRET coactivator assay kits for LXRβ (Thermo Fisher Scientific) and PPARγ (Thermo Fisher Scientific) were performed according to manufacturer instructions using low-binding black 384-well plates and Synergy Neo2 plate reader. […] Each compound dose was performed in quadruplicate on each plate, and each experiment was performed in triplicate.

The subject of the next data set is ABCA1. Briefly: ABCA1 firefly reporter assay in CCF-001 cells. Particulars: ABCA1 firefly reporter assay in CCF-001 cells (Table 8). The data set is classed as cell-based. For orientation: A reporter such as luciferase makes a cellular process visible.
Data set [2] concerns the target T4, LXRβ (Homo sapiens, UniProt P55055).
T4 sequence (P55055 1-460): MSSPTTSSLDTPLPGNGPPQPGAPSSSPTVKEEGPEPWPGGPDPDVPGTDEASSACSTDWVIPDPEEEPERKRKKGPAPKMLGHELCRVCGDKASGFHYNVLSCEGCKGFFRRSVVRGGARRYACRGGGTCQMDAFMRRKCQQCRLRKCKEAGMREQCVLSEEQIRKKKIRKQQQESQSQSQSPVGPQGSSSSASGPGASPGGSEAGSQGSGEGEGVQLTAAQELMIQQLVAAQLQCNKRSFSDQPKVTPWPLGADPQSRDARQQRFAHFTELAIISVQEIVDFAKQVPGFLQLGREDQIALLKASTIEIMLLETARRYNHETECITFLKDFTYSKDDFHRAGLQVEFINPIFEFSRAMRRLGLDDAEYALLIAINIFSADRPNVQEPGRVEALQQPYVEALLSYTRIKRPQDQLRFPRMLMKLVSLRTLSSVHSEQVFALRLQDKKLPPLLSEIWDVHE
Put plainly: LXRβ NHR screen (DiscoverX NHR-Scan, β-gal reporter). The data set is classed as cell-based. The method, then: as §1

Regarding `CCOC(=O)c1cccc(NC(=O)c2sc(Cl)cc2S(=O)(=O)N(C)c2ccc(OCC)c(OCC)c2)c1` [CL2-57, ethyl 3-(5-chloro-3-(N-(3,4-diethoxyphenyl)-N-methylsulfamoyl)thiophene-2-carboxamido) benzoate], the “SREBF1 mRNA - HepG2, activity of CL2-57 (10 μM) as % of T0901317 (1 μM)” value in the data set with SREBF1 mRNA is listed as 39%. For the same molecule, the “LXRα NHR screen, activity of CL2-57 (10 μM) as % of T0901317 (1 μM)” value at LXRα stood at 34%. For the same molecule, the “Activity in PPARγ TR-FRET binding assay” value on PPARγ is recorded as “Weak competitive antagonism”. Besides, on PPARγ (addition of 10 μM CL2-57, p<0.01), the “Right-shift in the TR-FRET dose-response for pioglitazone” value is 2.1 fold. Besides, the TR-FRET signal reduction on PPARγ (constant pioglitazone concentration, CL2-57 at concentrations ≥1 μM) was 20-45%. In the data set with CD1 mice, the Circulating neutrophil levels result is given as “did not affect”, the “Plasma TG” value is given as “did not affect” and the Plasma cholesterol result was “did not affect”. Besides, the EC50 (in general, the concentration that produces a half-maximal response) on LXRβ [1] was determined as 1300 nM. Moreover, the EC50 in the data set with ABCA1 worked out at 817 nM. Besides, the “LXRβ NHR screen, activity of CL2-57 (10 μM) as % of T0901317 (1 μM)” value on LXRβ [2] (10 μM) worked out at 75%. Moreover, the “LXR β/α selectivity by Emax” value at LXRβ [2] (cell-based β-gal reporter assays) is 2.5 fold. Besides, the “Functional mode at LXR” value on LXRβ [2] (cell-based β-gal reporter assays, 10 μM) is reported as “partial LXR agonist”.
